Here are results for 22 molecules from patent US10758534B2 (Vertex Pharmaceuticals Incorporated, priority 2014, dated 2020).

The assay concerns the target T1, F508del (Homo sapiens, UniProt P13569, DEL508-508).
T1 construct: expressed in transfected cells
Description: Protocol 1: membrane potential optical assay (FLIPR III, voltage sensing dye), identification of potentiator compounds. In kind it is cell-based. Particulars: Table 3, compounds of Table 1. The method in brief: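 Membrane potential in forskolin-activated, temperature-rescued F508del NIH 3T3 cells is followed with a voltage-sensing dye on FLIPR III. A chloride ion gradient created at the single addition step provides the driving force, after prior compound treatment.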

T1 sequence (P13569 with tags, fused parts or gaps DEL508-508): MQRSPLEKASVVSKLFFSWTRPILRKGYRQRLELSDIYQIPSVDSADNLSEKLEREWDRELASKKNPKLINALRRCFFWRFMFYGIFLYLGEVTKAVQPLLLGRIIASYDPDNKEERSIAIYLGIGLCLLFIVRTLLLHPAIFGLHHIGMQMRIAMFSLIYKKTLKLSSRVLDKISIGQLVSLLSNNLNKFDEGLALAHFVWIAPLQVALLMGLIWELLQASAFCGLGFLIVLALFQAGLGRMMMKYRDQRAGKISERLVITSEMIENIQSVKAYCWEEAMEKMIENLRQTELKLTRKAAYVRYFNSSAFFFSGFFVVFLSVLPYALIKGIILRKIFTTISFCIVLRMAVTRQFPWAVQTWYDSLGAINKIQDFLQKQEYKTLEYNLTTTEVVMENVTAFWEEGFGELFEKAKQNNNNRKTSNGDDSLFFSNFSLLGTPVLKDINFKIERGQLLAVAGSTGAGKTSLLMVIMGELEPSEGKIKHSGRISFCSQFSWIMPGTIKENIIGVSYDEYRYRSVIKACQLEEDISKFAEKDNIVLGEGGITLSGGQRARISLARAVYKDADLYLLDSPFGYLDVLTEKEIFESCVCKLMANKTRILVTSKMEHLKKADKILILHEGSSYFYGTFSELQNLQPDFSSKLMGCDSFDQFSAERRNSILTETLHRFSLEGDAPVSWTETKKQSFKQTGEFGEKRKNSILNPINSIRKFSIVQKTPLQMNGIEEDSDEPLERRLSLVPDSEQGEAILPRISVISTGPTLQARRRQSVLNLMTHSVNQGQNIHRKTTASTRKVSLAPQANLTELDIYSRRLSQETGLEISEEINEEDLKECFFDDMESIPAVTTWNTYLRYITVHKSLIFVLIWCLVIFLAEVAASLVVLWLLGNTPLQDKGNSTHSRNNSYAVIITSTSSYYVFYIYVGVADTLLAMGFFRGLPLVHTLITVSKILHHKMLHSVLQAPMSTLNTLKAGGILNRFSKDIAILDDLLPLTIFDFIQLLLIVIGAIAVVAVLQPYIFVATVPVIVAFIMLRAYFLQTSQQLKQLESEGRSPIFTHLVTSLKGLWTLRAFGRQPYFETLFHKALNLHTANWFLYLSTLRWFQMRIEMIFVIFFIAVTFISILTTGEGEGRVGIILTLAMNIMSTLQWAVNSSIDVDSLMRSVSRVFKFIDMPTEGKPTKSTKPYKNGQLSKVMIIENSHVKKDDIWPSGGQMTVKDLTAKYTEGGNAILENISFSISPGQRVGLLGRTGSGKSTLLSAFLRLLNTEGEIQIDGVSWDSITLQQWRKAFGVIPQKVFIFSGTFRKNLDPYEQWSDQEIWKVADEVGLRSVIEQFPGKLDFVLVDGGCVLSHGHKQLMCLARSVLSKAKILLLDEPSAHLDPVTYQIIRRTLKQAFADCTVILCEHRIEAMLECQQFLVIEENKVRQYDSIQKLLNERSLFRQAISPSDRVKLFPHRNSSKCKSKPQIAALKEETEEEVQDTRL

As for `CC(C)Oc1ccc(-c2ccc(C(=O)NS(=O)(=O)c3cccc(N)n3)c(N3CCCC(OCC4CC4)C3)n2)cn1` (stereo not shown) [Compound 858, N-[(6-amino-2-pyridyl)sulfonyl]-2-[3-(cyclopropylmethoxy)-1-piperidyl]-6-(6-isopropoxy-3-pyridyl)pyridine-3-carboxamide], the EC30 entry is “++ (“++” means between 3 uM and 10 uM)”.

Turning to `Cc1cc(C)c(Oc2nc(-c3ccc4c(c3)CCO4)ccc2C(=O)NS(=O)(=O)c2cccc(N)n2)c(C)c1` [Compound 1048], the EC30 result is recorded as “+++ (“+++” means <3 uM)”.

On to `Cc1cccc(C)c1Cn1nc(-c2coc3ccccc3c2=O)cc1C(=O)NS(=O)(=O)c1ccccc1` [Compound 1501, N-(benzenesulfonyl)-2-[(2,6-dimethylphenyl)methyl]-5-(4-oxochromen-3-yl)pyrazole-3-carboxamide], for which the EC30 entry is reported as “+++ (“+++” means <3 uM)”. For `CC1CN(c2ncccc2C(=O)NS(=O)(=O)c2cccc(N3CCN(C(=O)OC(C)(C)C)CC3)n2)C(C)(C)C1` (stereo not shown) [Compound 1773, tert-butyl 4-[6-[[2-(2,2,4-trimethylpyrrolidin-1-yl)pyridine-3-carbonyl]sulfamoyl]-2-pyridyl]piperazine-1-carboxylate], the EC30 result is recorded as “+++ (“+++” means <3 uM)”. For the molecule `Cc1cc(C)c(Oc2nc(C)ccc2C(=O)NS(=O)(=O)c2cccc(N3CCOCC3)n2)c(C)c1` [Compound 883, 6-methyl-N-[(6-morpholino-2-pyridyl)sulfonyl]-2-(2,4,6-trimethylphenoxy)pyridine-3-carboxamide], the EC30 entry is “++ (“++” means between 3 uM and 10 uM)”. To `CCOc1cccc2c1CN(Cc1c(C)cc(C)cc1C)C2(C)C(=O)NS(=O)(=O)c1ccc2cc[nH]c2c1` (stereo not shown) [Compound 1393, 4-ethoxy-N-(1H-indol-6-ylsulfonyl)-1-methyl-2-[(2,4,6-trimethylphenyl)methyl]isoindoline-1-carboxamide] belongs “+++ (“+++” means <3 uM)”; to `CC(C)COc1cc(F)cc(-c2ccc(C(=O)NS(=O)(=O)c3ccn[nH]3)c(N3CCC(c4ccccc4)CC3)n2)c1` [Compound 1315, 6-(3-fluoro-5-isobutoxy-phenyl)-2-(4-phenyl-1-piperidyl)-N-(1H-pyrazol-5-ylsulfonyl)pyridine-3-carboxamide], “+++ (“+++” means <3 uM)”.

Take `CC(C)COc1cnn(-c2ccc(C(=O)NS(=O)(=O)c3cccnc3N)c(N3C[C@@H](C)CC3(C)C)n2)c1` [Compound 1895, N-[(2-amino-3-pyridyl)sulfonyl]-6-(4-isobutoxypyrazol-1-yl)-2-[(4S)-2,2,4-trimethylpyrrolidin-1-yl]pyridine-3-carboxamide]: the EC30 entry is given as “+++ (“+++” means <3 uM)”. Regarding `Cc1ccccc1-c1ccc(C(=O)NS(=O)(=O)c2cccnc2N)c(N2C[C@@H](C)CC2(C)C)n1` [Compound 1766, N-[(2-amino-3-pyridyl)sulfonyl]-6-(o-tolyl)-2-[(4S)-2,2,4-trimethylpyrrolidin-1-yl]pyridine-3-carboxamide], the EC30 result was “+++ (“+++” means <3 uM)”. As for `Cc1cc(C)cc(-c2ccc(C(=O)NS(=O)(=O)c3cccc(N)n3)c(N3C[C@@H](C)CC3(C)C)n2)c1` [Compound 1771, N-[(6-amino-2-pyridyl)sulfonyl]-6-(3,5-dimethylphenyl)-2-[(4S)-2,2,4-trimethylpyrrolidin-1-yl]pyridine-3-carboxamide], the EC30 entry is “+++ (“+++” means <3 uM)”. Regarding `CC(C)COc1cc(F)cc(-c2ccc(C(=O)NS(=O)(=O)c3cccc(N)n3)c(OC(C)c3ccc(F)cc3)n2)c1` (stereo not shown) [Compound 867, N-[(6-amino-2-pyridyl)sulfonyl]-6-(3-fluoro-5-isobutoxy-phenyl)-2-[1-(4-fluorophenyl)ethoxy]pyridine-3-carboxamide], the EC30 result is on record as “+++ (“+++” means <3 uM)”. For `CC(C)COc1cncc(-c2ccc(C(=O)NS(=O)(=O)c3cccc(N)n3)c(N3CC(C)CC3(C)C)n2)n1` (stereo not shown) [Compound 988, N-[(6-amino-2-pyridyl)sulfonyl]-6-(6-isobutoxypyrazin-2-yl)-2-(2,2,4-trimethylpyrrolidin-1-yl)pyridine-3-carboxamide], the EC30 result was “+++ (“+++” means <3 uM)”. `CC(C)COc1cc(F)cc(-c2ccc(C(=O)NS(=O)(=O)c3cccc(N)n3)c(C3=C[C@H](C)CC3(C)C)n2)c1` [Compound 1961]: the EC30 result was “+++ (“+++” means <3 uM)”.

Regarding `CC1CN(c2ncccc2C(=O)NS(=O)(=O)c2cccc(Oc3ccc(F)cc3)n2)C(C)(C)C1` (stereo not shown) [Compound 1813, N—[[6-(4-fluorophenoxy)-2-pyridyl]sulfonyl]-2-(2,2,4-trimethylpyrrolidin-1-yl)pyridine-3-carboxamide], the EC30 result was “+++ (“+++” means <3 uM)”. On to `CCOc1ccc(-c2ccc(C(=O)NS(=O)(=O)c3cc[nH]n3)c(Oc3ccc(C)cc3C)n2)cc1` [Compound 813, 2-(2,4-dimethylphenoxy)-6-(4-ethoxyphenyl)-N-(1H-pyrazol-3-ylsulfonyl)pyridine-3-carboxamide], for which the EC30 result is “+++ (“+++” means <3 uM)”.

`CCOc1ccc(-c2ccc(C(=O)NS(=O)(=O)c3ccc[nH]c3=O)c(Oc3c(C)cc(C)cc3C)n2)cc1` [Compound 1179, 6-(4-ethoxyphenyl)-N-[(2-oxo-1H-pyridin-3-yl)sulfonyl]-2-(2,4,6-trimethylphenoxy)pyridine-3-carboxamide]: the EC30 result is “++ (“++” means between 3 uM and 10 uM)”. `Cc1ccc(OCC(C)C)nc1-c1ccc(C(=O)NS(=O)(=O)c2cccc(N)n2)c(N2CC(C)CC2(C)C)n1` (stereo not shown) [Compound 1659, N-[(6-amino-2-pyridyl)sulfonyl]-6-(6-isobutoxy-3-methyl-2-pyridyl)-2-(2,2,4-trimethylpyrrolidin-1-yl)pyridine-3-carboxamide]: the EC30 entry is on record as “+++ (“+++” means <3 uM)”. Turning to `CCOc1cccc2c1CN(Cc1c(C)cc(C)cc1C)C2(C)C(=O)NS(=O)(=O)c1cccc(N)n1` (stereo not shown) [Compound 1346, N-[(6-amino-2-pyridyl)sulfonyl]-4-ethoxy-1-methyl-2-[(2,4,6-trimethylphenyl)methyl]isoindoline-1-carboxamide], the EC30 entry is given as “+++ (“+++” means <3 uM)”.

Take `C[C@@H]1CN(c2ncc(C(F)(F)F)cc2C(=O)NS(=O)(=O)c2cccc(N)n2)C(C)(C)C1` [Compound 1550, N-[(6-amino-2-pyridyl)sulfonyl]-5-(trifluoromethyl)-2-[(4S)-2,2,4-trimethylpyrrolidin-1-yl]pyridine-3-carboxamide]: the EC30 result was “++ (“++” means between 3 uM and 10 uM)”.

For `CCOc1cccc2c1CN(Cc1c(C)cc(C)cc1C)C2(C)C(=O)NS(=O)(=O)c1cccc(OC)c1` (stereo not shown) [Compound 1470, 4-ethoxy-N-(3-methoxyphenyl)sulfonyl-1-methyl-2-[(2,4,6-trimethylphenyl)methyl]isoindoline-1-carboxamide], the EC30 result is recorded as “+++ (“+++” means <3 uM)”. Consider `Cc1ccc(-c2nc(-c3cc(F)cc(OC(C)C)c3)ccc2C(=O)NS(=O)(=O)c2nccnc2N)cc1` [Compound 1351, N-(3-aminopyrazin-2-yl)sulfonyl-6-(3-fluoro-5-isopropoxy-phenyl)-2-(p-tolyl)pyridine-3-carboxamide], for which the EC30 result is “++ (“++” means between 3 uM and 10 uM)”. In the case of `CC(C)COc1cc(F)cc(-c2ccc(C(=O)NS(=O)(=O)c3cccc(N)n3)c(N3CC(C)OCC3(C)C)n2)c1` (stereo not shown) [Compound 1548, N-[(6-amino-2-pyridyl)sulfonyl]-6-(3-fluoro-5-isobutoxy-phenyl)-2-(2,5,5-trimethylmorpholin-4-yl)pyridine-3-carboxamide], the EC30 result is given as “+++ (“+++” means <3 uM)”.
